In US20240400547A1, “2,6-PIPERIDINEDIONE COMPOUND AND APPLICATION THEREOF” (MEDSHINE DISCOVERY INC., priority 2021, published 2024):
Counter-ions that a name gives are not always drawn.

System: OCI-LY10
Test: Antiproliferative effect in lymphoma cell line OCI-LY10 (CellTiter-Glo)
Type: cell-based, human
Conditions: OCI-LY10, 5 days; for IC50: Homo sapiens, 120 h
Protocol: Experimental purpose: The experiment aims to evaluate the inhibitory effects of the test compounds on cell proliferation in the diffuse large B-cell lymphoma (DLBCL) cell lines OCI-LY10 and TMD-8.
The tumor cell lines were cultured in a 37° C., 5% CO2 incubator under the above culture conditions. Regular passage, and cells in logarithmic growth phase were taken for plating.
• (1) Cells were stained with trypan blue and viable cells were counted. • (2) The cell concentration was adjusted to an appropriate concentration.
• (3) 100 μL of cell suspension per well was added to the culture plate as shown above. • (4) The culture plate was cultured overnight in a 37° C., 5% CO2 incubator with 100% relative humidity.
Preparation of stock solution storage plate with 1000 times the initial concentration of the compound: The compound was serially diluted with DMSO from the highest concentration to the lowest concentration. The solution was prepared as needed each time.
4. Preparation of 1000× Compound Working Solution and Cell Treatment with Compounds • (1) Preparation of the working solution with 5 times the initial concentration of the compound: For 3-fold dilution of the compound, 30 μL of the compound from a stock solution at 1000-fold concentration was taken, and 20 μL of DMSO was added to the subsequent wells. Then, 10 μL was transferred from one concentration to the next in sequence. For 5-fold dilution of the compound, 30 μL of the compound from a stock solution at 1000-fold concentration was taken, and 24 μL of DMSO was added to the subsequent wells. Then, 6 μL was transferred from one concentration to the next in sequence. 20 μL of DMSO was added to the vehicle control. The 1000-fold concentrated compound was diluted 200 times with culture medium, i.e., 1 μL of the 1000-fold diluted compound is added to 199 μL of culture medium, and the mixture was homogenized using a pipette. • (2) Compound addition: 25 μL of the 5-fold compound solution was added to the cell culture plate. • (3) The 96-well cell plate was returned to the incubator to culture OCI-LY10 (with either 3-fold or 5-fold dilution, incubated with compounds added for 5 days) and TMD-8 (with either 3-fold or 5-fold dilution, incubated with compounds added for 5 days).
The following steps were performed according to the instructions of Promega CellTiter-Glo luminescent cell viability assay kit (Promega-G7573). • (1) CellTiter-Glo buffer was melted and brought to room temperature. • (2) CellTiter-Glo substrate was brought to room temperature. • (3) CellTiter-Glo working solution was prepared by adding 10 mL of CellTiter-Glo buffer to a vial of CellTiter-Glo substrate to dissolve the substrate. • (4) The mixture was slowly vortexed and shaken to be fully dissolved. • (5) The cell culture plate was taken out and left for 30 minutes to equilibrate to room temperature. • (6) 60 μL of CellTiter-Go working solution was added per well (equal to half the volume of cell culture medium per well). The cell plate was wrapped in aluminum foil to be protected from light. • (7) The culture plate was shaken on an orbital shaker for 2 minutes to induce cell lysis. • (8) The culture plate was left at room temperature for 10 minutes to stabilize the luminescent signal. • (9) The luminescent signal was detected on a 2104 EnVision plate reader.
The inhibition rate (IIR) of the test compound was calculated using the following formula: IR (%)=(1−RLU compound/RLU vehicle control)*100%. The inhibition rates of compounds at different concentrations were calculated in Excel, and then GraphPad Prism software was used to plot inhibition curves and calculate relevant parameters, including minimum inhibition rate, maximum inhibition rate, and IC50.

| IC50 | SMILES | Maximum inhibition rate |
| --- | --- | --- |
| 24.4 nM | O=C1CCC(c2noc3cc(NC(=O)CN4CCN(C[C@H]5CC[C@H](n6cc(NC(=O)c7coc(-c8ccnc(NCC9CC9)c8)n7)c(C(F)F)n6)CC5)CC4)ccc23)C(=O)N1 (some centres unmarked) [Hydrochloride of WX025] | 97.39% |
| 85.2 nM | O=C1CCC(c2noc3c(NC(=O)CN4CCN(C[C@H]5CC[C@H](n6cc(NC(=O)c7coc(-c8ccnc(NCC9CC9)c8)n7)c(C(F)F)n6)CC5)CC4)cccc23)C(=O)N1 (some centres unmarked) [Hydrochloride of WX028] | 99.01% |
| 17 nM | O=C1CCC(c2coc3ccc4c(NC(=O)CN5CCN(C[C@H]6CC[C@H](n7cc(NC(=O)c8coc(-c9ccnc(NCC%10CC%10)c9)n8)c(C(F)F)n7)CC6)CC5)cccc4c23)C(=O)N1 (some centres unmarked) [Trifluoroacetate of WX011] | 93.42% |

The next lines start with the compound.

| SMILES | IC50 | Maximum inhibition rate |
| --- | --- | --- |
| CC(C)(O)c1cc2nc([C@H]3CC[C@H](CN4CCN(CC(=O)Nc5ccc6c(ccc7onc(C8CCC(=O)NC8=O)c76)c5)CC4)CC3)sc2cc1NC(=O)c1cccc(C(F)(F)F)n1 (some centres unmarked) [Formate of WX020] | 25 nM | 94.96% |
| O=C1CCC(c2coc3cc(NC(=O)CN4CCN(C[C@H]5CC[C@H](N6CC(NC(=O)c7coc(-c8ccnc(NCC9CC9)c8)n7)C(C(F)F)N6)CC5)CC4)ccc23)C(=O)N1 (some centres unmarked) [Hydrochloride of WX002] | 192 nM | 63.27% |
| O=C1CCC(c2noc3ccc4c(NC(=O)CN5CCN(C[C@H]6CC[C@H](n7cc(NC(=O)c8coc(-c9ccnc(NCC%10CC%10)c9)n8)c(C(F)F)n7)CC6)CC5)cccc4c23)C(=O)N1 (some centres unmarked) [Hydrochloride of WX014] | 13.7 nM | 94.54% |
| O=C1CCC(c2noc3ccc4c(NC(=O)C(F)(F)C5CCN(CC6CCC(n7cc(NC(=O)c8coc(-c9ccnc(NCC%10CC%10)c9)n8)c(C(F)F)n7)CC6)CC5)cccc4c23)C(=O)N1 (centres unmarked) [Hydrochloride of WX018] | 6.99 nM | 99.92% |
